The results in this text go back to patent US10912781B2, “Pharmaceutical composition comprising licarbazepine acetate” (BIAL-Portela & C.A., S.A., priority 2007, dated 2021).

The data set can be described thus: Bulk density / apparent volume (Ph. Eur. edn. 6, test 2.9.15 or USP 31 <616>). In kind it is physicochemical. The settings on record: API prior to granulation / preparation prior to forming the final formulation. On the procedure:
Suitable methods for determining the bulk density of the preparation will be well known to the skilled chemist, for example, the European Pharmacopeia edition 6, Test 2.9.15 “apparent volume”, pages 285-286, EDQM, 2007, or USP 31, vol. 1 test <616> page 231-232, The United States Pharmacopeia Convention, 2008. The apparent density of a compressed formulation is measured in terms of mass and volume of the formulation and is well within the capabilities of the skilled person.
A suitable method is described below: • Apparatus • settling apparatus capable of producing in 1 minute 250±15 taps from a height of 3±0.2 mm. The support for the graduated cylinder with its holder, has a mass of 450±5 g • a 250 ml graduated cylinder (2 ml intervals) with a mass of 220±40 g • Method • Into a dry cylinder, introduce without compacting, 100.0 g […] of the test substance. Secure the cylinder in its holder. Read the unsettled apparent volume (V0) to the nearest milliliter. Carry out 10, 500 and 1250 taps and read the corresponding volumes V10, V500, V1250, to the nearest milliliter. If the difference between V500 and V1250 is greater than 2 ml, carry out another 1250 taps. […]
Bulk/apparent density may then be determined in g/ml using the following formula: m/V0 where m is the mass in grams and V0 the unsettled apparent volume

As for licarbazepine acetate, the Bulk density entry is “less than 0.3 g/mL”. The Bulk density result (listed as API) is “about 0.28 g/mL”.
